Results on eight compounds are retold here after patent publication US8148328B2, “Salicylanilides enhance oral delivery of therapeutic peptides” (The Regents of the University of California, priority 2006, dated 2012).

For series [1], the system named is inflammatory response induced by the action of HPODE oxidizing PAPC in cocultures of human artery wall cells. The conditions noted are these: apoE null mice, drinking water 24 hours; D-4F 1 μg/ml, atorvastatin or pravastatin 0.05 mg/ml; cited from earlier work.
For series [2] the following is noted: mouse, in vivo, 100 ug.
Procedure: (§1) Fasted apoE null mice 6-months of age (n=4 per group) were administered by stomach tube ^14C-L-4F (21,000 dpm containing 10 micrograms of L-4F per mouse) with or without 100 micrograms of niclosamide in 200 microliters. Fasting was continued and the mice were bled at the time points shown on the X-axis and the dpm per mL plasma determined.
(§2) Fasted female apoE null mice 6-months of age (n=4 per group) were administered by stomach tube L-4F (21,000 dpm containing 10 micrograms of L-4F per mouse) with or without 100 micrograms of niclosamide in 200 μL 0.1% Tween20 in ammonium bicarbonate at pH 7.0. Fasting was continued and the mice were bled at the time points shown on the X-axis in FIG. 27 and the dpm per mL plasma determined.
For series [3] the following is noted: mouse, in vivo.
Procedure: as §1, §2
For series [4], the system named is LDL-induced monocyte chemotactic activity in cultures of human aortic endothelial cells. Briefly: HDL-inflammatory index of HDL from treated apoE null mice. It counts as in vivo. The conditions noted are these: for HDL-inflammatory index, potency relative to niclosamide: FIG. 24: salicylanilide 10:1 with 5 μg D-4F or L-4F by stomach tube, 6 hours. The source says:
11-month-old female apoE null mice were fasted during the day. At night the mice were provided chow containing or not containing additions. In the first experiment the mice were given chow alone (C) or chow supplemented with 8.0 micrograms of Niclosamide (2′,5-Dichloro-4′-nitrosalicylanilide; Niclosamide, Sigma catalog number N-3510 Page 1711 2006-2007 catalog Empirical Formula (Hill Notation): C13H8C12N2O4 Formula Weight: 327.12, CAS Number: 50-65-7 Batch 105K0666 EC 200-056-8) per gram of chow (D) or chow supplemented with 2.0 micrograms of L-4F (free base) per gram of chow (E), or chow supplemented with 8.0 micrograms of Niclosamide together with 2.0 micrograms of L-4F (free base) per gram of chow (F). The mice were only given one gram of chow per mouse (n=8 mice per group) so that they would consume all of the chow. In the morning after the chow was consumed the mice were bled and their plasma was sucrose cryopreserved and fractionated by FPLC and the HDL-containing fractions were tested for their ability to inhibit monocyte chemotactic activity induced by a standard control human LDL (A) in cultures of human aortic endothelial cells. The mouse HDL (C-J) was also compared to a standard human HDL (B) that was added at the same concentrations as the mouse HDL. The resulting monocyte chemotactic activity was normalized to the standard control LDL added alone (A). The results are plotted as the HDL-inflammatory index, which is the result of dividing the monocyte chemotactic activity measured for each condition by the monocyte chemotactic activity obtained by the standard control LDL added alone, which was normalized to 1.0 as described previously (Navab et al. (2004) J Lipid Res, 45: 993-1007).
A second experiment was performed as described for the first experiment with 8 mice in each group except that the additions to the chow were different. Chow alone in the second experiment (G) was compared to chow supplemented with 100 micrograms of Niclosamide per gram of chow (H), or supplemented with 10 micrograms of L-4F (free base) per gram of mouse chow (I), or supplemented with 10 micrograms of L-4F (free base) together with 100 micrograms of Niclosamide per gram of chow (J). As in the first experiment the mice were only given one gram of chow per mouse so that they would consume all of the chow. In the morning this second group of mice were bled and their HDL tested in the human artery wall cell culture together with the HDL from the first experiment.
Ten mg of Niclosamide was placed in a glass-glass homogenizer with mortar and round bottom pestle (Kontes Dounce Tissue grinder, K885300-0015 available from Fisher, VWR) and 200 μL of ethanol was added. The Niclosamide ethanol mixture was homogenized using 2-3 strokes and distilled water was added and the mixture further homogenized using 5-10 strokes and the volume was adjusted to 10 mL with distilled water. Serial dilutions of this mixture were made using distilled water to give the micrograms of Niclosamide shown on the x-axis, which were contained in 100 μL. L-4F (free base) was diluted with water to give 10 μg per 100 μL of water. One hundred microliters of the Niclosamide solution was given by stomach tube to each mouse in each group of twelve-month-old non-fasting female apoE null mice (n=4 per group) and immediately followed by 100 μL containing 10 μg of L-4F (free base) in water. The mice were fasted and after 7 hours they were bled and their plasma was sucrose cryopreserved. The plasma was fractionated by FPLC and the HDL-containing fractions were tested for their ability to inhibit the induction of monocyte chemotactic activity by a standard control human LDL, which was added to cultures of human aortic endothelial cells. The standard control human LDL was also added by itself or with a standard control human HDL. The values obtained by the standard control human LDL alone were normalized to 1.0. […]

Series [5] is described as follows: Fate of peptides after an oral dose (degradation, association with HDL, clearance from the circulation).
Series [6] concerns LDL-induced monocyte chemotactic activity in cultures of human aortic endothelial cells. The settings on record: mice, oral, without niclosamide; human artery wall cells (Navab 2002); cited from earlier work.
The subject of a further series is aortic sinus lesion area. Put plainly: Lesion regression in old apoE null mice, six months in chow. Format: in vivo. The settings on record: FIGS. 32-34: niclosamide 2 mg and/or L-4F 200 μg/mouse/day in chow, pravastatin 50 μg/mouse/day, 26 weeks. The source says: Ninety-five female apoE null mice age 9.5 months from the UCLA breeding colony were identified. Twenty-three were sacrificed at time Zero (Group I) to establish lesion area at the start of the experiment. The remainder of the mice were divided into three groups of 24 mice each and the following additions were made to the chow for each group: Group II: Niclosamide at 2,000 micrograms/mouse/day; Group III: L-4F at 200 micrograms/mouse/day; Group IV: L-4F at 200 micrograms/mouse/day plus Niclosamide at 2,000 micrograms/mouse/day. All groups received 50 micrograms/mouse/day of pravastatin in their drinking water. At the veterinarian's request because of fighting and/or ulcerative dermatitis mice were euthanized prior to the end of the experiment as follows: 6 mice from Group II; 5 mice from Group III; 4 mice from Group IV. After six months the remaining mice were sacrificed and aortic sinus lesion area was determined as described previously (Id.).
In still another experiments, nine and half months-old female apoE null mice were divided into four groups: Group I was sacrificed to establish base line lesion area (Time Zero). Group II received niclosamide at 2 mg/mouse/day in rodent chow. Group III received L-4F at 200 μg/mouse/day in rodent chow. […] After 26 weeks the mice were sacrificed and aortic sinus lesion area was determined.

The conditions of series [7]: mouse, in vivo; cited from earlier work.
For series [8] the following is noted: mouse, in vivo. The source holds these as a separate data set.
For series [9], the system named is monocyte chemotactic activity in cultures of human aortic endothelial cells. Put plainly: LDL-inflammatory index of LDL from treated apoE null mice. It counts as in vivo. The settings on record: FIG. 25: co-administered with D-4F or L-4F, mice of FIG. 24.
Series [10] can be described thus: Solubilization of niclosamide in water with or without L-4F. It counts as physicochemical. The settings on record: even when added in ethanol and homogenized.
Procedure: Niclosamide at 10 mg per mL was added to water, or to water containing 1.0 mg/mL L-4F (free base) and was homogenized in a glass-glass homogenizer. The solutions were stored at 4° C. for ten days and photographed
Niclosamide at 10 mg per mL was added to water, or to water containing 1.0 mg/mL L-4F (free base) and was homogenized in a glass-glass homogenizer.
The conditions of series [11]: cited from earlier work; for solubility in water: 20° C., ethanolamine salt in distilled water.
[12] abbreviates: FIG. 22: 10 μg peptide with or without niclosamide 10:1, pH 8.0, stomach tube, 7 hours.
[13] abbreviates: FIG. 8: female apoE null mice, overnight in chow, niclosamide 8 or 100 μg and/or L-4F 2 or 10 μg per gram of chow.

Structures can show the parent of a compound that is named as a salt. Where two headings read alike, the source gives them in different places. Residues, ends and D or L forms follow the SMILES beside them. No end group written: not given here.

`CC(C)c1c(C(=O)Nc2ccccc2)c(-c2ccccc2)c(-c2ccc(F)cc2)n1CC[C@@H](O)C[C@@H](O)CC(=O)O` [atorvastatin, reference compound]: the HDL function entry in series [1] is “did not improve HDL function”.
In [2], `CC(=O)N[C@@H](CC(=O)O)C(=O)N[C@@H](Cc1c[nH]c2ccccc12)C(=O)N[C@@H](Cc1ccccc1)C(=O)N[C@@H](CCCCN)C(=O)N[C@@H](C)C(=O)N[C@@H](Cc1ccccc1)C(=O)N[C@@H](Cc1ccc(O)cc1)C(=O)N[C@@H](CC(=O)O)C(=O)N[C@@H](CCCCN)C(=O)N[C@H](C(=O)N[C@@H](C)C(=O)N[C@@H](CCC(=O)O)C(=O)N[C@@H](CCCCN)C(=O)N[C@@H](Cc1ccccc1)C(=O)N[C@@H](CCCCN)C(=O)N[C@@H](CCC(=O)O)C(=O)N[C@@H](C)C(=O)N[C@@H](Cc1ccccc1)C(N)=O)C(C)C` [^14C-L-4F] (Ac-DWFKAFYDKVAEKFKEAF-NH2; N-terminus and C-terminus assumed) showed a Cmax of about 150 ng/mL. Besides, in series [3], the “duration of (low) plasma levels” value was “no more than 5 minutes”, the “persistence of plasma level at a lower level” value is on record as “up to four hours” and the “persistence of the Cmax plasma level” value was “persisted for more than an hour”. The HDL inflammatory index entry in series [4] (FIG. 28: 10 μg 14C-L-4F with 100 μg niclosamide, 5 hours) is “biologically active when given with niclosamide”.
In the case of “D-4F: 4F (SEQ ID NO:5) where one or more residues are D form amino acids (DWFKAFYDKVAEKFKEAF; also: one or more residues D-form, places not given here)”, the “association with pre-beta HDL and HDL” value in series [5] (after an oral dose) is “rapidly associates with pre-beta HDL and HDL”. For the same compound, the “time after an oral dose at which essentially non-detectable in the circulation” value in series [5] (oral dose) was 6 h. In series [4] (setting [12]), the HDL-inflammatory index result is listed as “able to render apoE null mouse HDL anti-inflammatory to a degree comparable to normal human HDL”. Also, the HDL function result in series [1] was “did not significantly improve HDL function”.
In the case of `CC(=O)N[C@@H](CC(=O)O)C(=O)N[C@@H](Cc1c[nH]c2ccccc12)C(=O)N[C@@H](Cc1ccccc1)C(=O)N[C@@H](CCCCN)C(=O)N[C@@H](C)C(=O)N[C@@H](Cc1ccccc1)C(=O)N[C@@H](Cc1ccc(O)cc1)C(=O)N[C@@H](CC(=O)O)C(=O)N[C@@H](CCCCN)C(=O)N[C@H](C(=O)N[C@@H](C)C(=O)N[C@@H](CCC(=O)O)C(=O)N[C@@H](CCCCN)C(=O)N[C@@H](Cc1ccccc1)C(=O)N[C@@H](CCCCN)C(=O)N[C@@H](CCC(=O)O)C(=O)N[C@@H](C)C(=O)N[C@@H](Cc1ccccc1)C(N)=O)C(C)C` [L-4F, Ac-D-W-F-K-A-F-Y-D-K-V-A-E-K-F-K-E-A-F-NH2] (Ac-DWFKAFYDKVAEKFKEAF-NH2), the “protective capacity of HDL to inhibit LDL-induced monocyte chemotactic activity” value in [6] is “did not significantly alter”. Further, the “lesions in old apoE null mice versus time zero” value in the series with aortic sinus lesion area is recorded as “neither niclosamide nor L-4F without niclosamide significantly reduced lesions”. Also, in [7], the “degradation after oral administration” value is on record as “rapidly degraded”. The “time after an oral dose at which essentially non-detectable in the circulation” value in [8] worked out at 6 h. The “association with pre-beta HDL and HDL” value in series [8] (po) is “rapidly associates with pre-beta HDL and HDL”. Also, the HDL-inflammatory index entry in [4] (setting [13]) was “slightly but significantly improved”; in series [4] (setting [12]), “only able to achieve this degree of efficacy when co-administered with niclosamide”.
Turning to `O=C(Nc1ccc([N+](=O)[O-])cc1Cl)c1ccc(O)c(Cl)c1` [BP-1012], the “LDL-inflammatory index, potency relative to niclosamide” value in series [9] is “more potent”. In series [4], the “HDL-inflammatory index, potency relative to niclosamide” value is listed as “more potent than niclosamide”.
On to `O=C(Nc1ccc([N+](=O)[O-])cc1Cl)c1ccc(Cl)cc1O` [BP-1001], for which the “LDL-inflammatory index, potency relative to niclosamide” value in series [9] is on record as “more potent”. Besides, the “HDL-inflammatory index, potency relative to niclosamide” value in [4] is given as “more potent than niclosamide”.
For `O=C(Nc1ccc([N+](=O)[O-])cc1Cl)c1cc(Cl)ccc1O` [Niclosamide, 2′5-dichloro-4′-nitrosalicylanilide], in the series with aortic sinus lesion area, the “lesions in old apoE null mice versus time zero” value is given as “neither niclosamide nor L-4F without niclosamide significantly reduced lesions”. For the same compound, the “solubility in aqueous solutions” value in [10] was “relatively insoluble”. Also, in series [11], the solubility in water is 5 to 8 mg/L; the solubility in acetone result is listed as “soluble in acetone”; the “solubility in ether, ethanol and chloroform” value is recorded as “sparingly soluble”. In series [11] (moist environments), the stability in tablets entry is reported as “undergoes a biodegradation”. For the same compound, the HDL-inflammatory index result in [4] (setting [13]) is “ineffective”. Moreover, the HDL-inflammatory index entry in series [4] (FIG. 24: salicylanilide administered without the peptides) is “neither niclosamide nor the new salicylanilides were anti-inflammatory”.
For the compound `O=C(Nc1ccc([N+](=O)[O-])cc1Cl)c1cc(Cl)ccc1O` [ethanolamine salt, 5-chloro-salicyl-(2-chloro-4-nitro) anilide 2-aminoethanol salt], the solubility in water in series [11] is 180 to 280 mg/L.
